Where two headings read alike, the source gives them in different places.
Legend:
[1] = biological target: human E3 ligase component cereblon (CRBN) (Homo sapiens (Human), UniProt Q96SW2); assay: Cereblon (CRBN) target engagement, NanoBRET TE Intracellular E3 Ligase Assay in transfected HEK-293T cells
Protocol: HEK-293T cells were harvested ca. 75% confluent with trypsin and plated (500,000 cells/well) in a 6-well tissue culture plate in 2 mL of Dulbecco's Modified Eagle Medium (DMEM)^+10% Fetal Bovine Serum (FBS) and incubated overnight at 37° C.
The NanoLue-CRBN fusion vector (Nluc-CRBN; Promega) contains the coding region of human E3 ligase component cereblon (CRBN) fused to the C-terminus of the NanoLuc luciferase coding region. A mixture of 10 ng Nluc-CRBN and 990 ng DDB1 Expression Vector (Promega) was added to 125 μL Opti-Minimum Essential Medium (Opti-MEM™; Thermo Fisher) along with 2 μL P3000 reagent (Thermo Fisher) in a 1.5 mL epppendorf tube. This solution was added to Lipofectamine 3000 transfection reagent (5 μL; Thermo Fisher) in Opti-MEM (125 μL), mixed well, and incubated for 15 minutes at room temperature. The transfection mixture was added dropwise to cells and incubated overnight at 37° C., 5% CO2. Following transfection, cells were washed once with PBS, and trypsin (250 μL) was added and incubated 30-45 see to dislodge cells. Complete media (2 mL) was added to resuspend cells to form a single cell suspension. Cells were centrifuged at 320×g for 5 min at room temperature, the supernatant was removed, and the cell pellet resuspended in Opti-MEM (3 mL; wash step repeated ×2). After final resuspension in 5 mL Opti-MEM, cells were counted and resuspended at 200,000 cells/mL in Opti-MEM.
Cereblon target engagement was monitored by Bioluminescence Resonance Energy Transfer (BRET) in transfected HEK-293T cells using the NanoBRET TE Intracellular E3 Ligase Assay (Promega). Briefly, 384-well plates (white opaque plates, Corning 3574, low binding surface) were seeded with transfected HEK-293T cells (38 μl/well). 2 μL of 10 μM CRBN tracer (diluted 1:5 in Tracer Dilution Buffer) was added to each well. Plates were centrifuged at 320×g for 1 min at room temperature. […] Plates were shaken for 2 minutes on a microplate shaker to mix compounds. Plates were centrifuged at 320×g for 1 min at room temperature, and subsequently incubated for 2 hours at 37° C.
After incubation, plates were allowed to cool to room temperature for 15 minutes. 20 μL of 3X Complete NanoBRET™ Nano-Glo® Substrate plus Inhibitor Solution (Promega, 1:166 Substrate and 1:500 dilution of Extracellular NanoLuc® Inhibitor diluted in Opti-MEM) were added to each well, Plates were incubated with shaking at room temperature for 3 minutes covered with foil. Plates were read on a CLARIOstar microplate reader (BMG LabTech), measuring at 450 nm (donor emission) and 610 nm (acceptor emission). The IC50 values were determined by regression to best fit four-parameter logistic curves using GraphPad Prism.

GSPT1 = GSPT1 (Homo sapiens (Human), UniProt P15170+Q96SW2); assay: GSPT1 reporter degradation assay (HEK293 hGSPT1 HiBiT-tagged cells); format: cell-based; settings: 24 hour incubation
Protocol: HEK293_hGSPT1_HiBiT-tagged cells were generated using CRISPR-Cas12a technology. Briefly, ˜400,000 HEK293 cells were transiently co-transfected with precomplexed ribonuclear proteins (RNPs) consisting of […] of crRNA (IDT), […] of Cas12a protein (IDT), 3 μg of ssODN donor (IDT; AltRTM modifications), 78 pmol of electroporation enhancer (IDT), and 200 ng of pMaxGFP (Lonza). The transfection was performed via nucleofection (Lonza, 4D-Nucleofector X-unit) using solution P3 and program CM-130 in a (20 μL) cuvette. Five days post-nucleofection, cells were single-cell-sorted for GFP+ (transfected) cells by FACs in 96-well plates and clonally selected. Clones were screened and verified for the desired modification via targeted deep sequencing using gene-specific primers with partial Illumina adapter overhangs as previously described. In brief, clonal cell pellets were harvested, lysed, and used to generate gene-specific amplicons with partial Illumina adapters in PCR #1. Amplicons were indexed in PCR #2 and pooled with other targeted amplicons for other loci to create sequence diversity. Additionally, 10% PhiX sequencing control V3 (Illumina) was added to the pooled amplicon library prior to running the sample on a Miseq Sequencer System (Illumina) to generate paired 2×250 bp reads. Samples were demultiplexed using the index sequences, fastq files were generated, and NGS analysis was performed using CRIS.py.
The GSTP1 degradation assay was carried out by harvesting the HEK 293T reporter cell lines and resuspending the cells in media formulated for reduced background fluorescence (FluoroBrite; Thermo Fisher). The respective cell lines were seeded at a density of 8,000 cells/well into white-opaque 384-well optical grade assay tissue culture plates (Greiner 781080-20). The cells were incubated overnight at 37° C. to allow for attachment to the assay plate. Dilutions of the compounds were prepared in DMSO from 10 mM compound stocks. […] Plates were centrifuged at 320×g for 2 minutes at room temperature, and subsequently incubated at 37° C.
After 24 hour incubation with the compounds, the plates were allowed to cool to room temperature for 10 minutes. 30 μL of HiBiT lytic buffer+1:50 HiBiT substrate Solution were added to each well. Plates were centrifuged at 320×g for 2 minutes at room temperature and then incubated with shaking at room temperature for 10 minutes covered with foil. Plates were read on a CLARIOstar microplate reader (BMG LabTech), measuring at 450 nm (donor emission) and 610 nm or 630 nm (acceptor emission). The DC50 values were determined by regression to best fit four-parameter logistic curves using GraphPad Prism.

[2] = Table 3, 2 hours at 37° C., read-out: CRBN Binding EC50
[3] = second (untitled) table after Table 3, read-out: CRBN Binding EC50

Chain of human E3 ligase component cereblon (CRBN) (Q96SW2 whole entry): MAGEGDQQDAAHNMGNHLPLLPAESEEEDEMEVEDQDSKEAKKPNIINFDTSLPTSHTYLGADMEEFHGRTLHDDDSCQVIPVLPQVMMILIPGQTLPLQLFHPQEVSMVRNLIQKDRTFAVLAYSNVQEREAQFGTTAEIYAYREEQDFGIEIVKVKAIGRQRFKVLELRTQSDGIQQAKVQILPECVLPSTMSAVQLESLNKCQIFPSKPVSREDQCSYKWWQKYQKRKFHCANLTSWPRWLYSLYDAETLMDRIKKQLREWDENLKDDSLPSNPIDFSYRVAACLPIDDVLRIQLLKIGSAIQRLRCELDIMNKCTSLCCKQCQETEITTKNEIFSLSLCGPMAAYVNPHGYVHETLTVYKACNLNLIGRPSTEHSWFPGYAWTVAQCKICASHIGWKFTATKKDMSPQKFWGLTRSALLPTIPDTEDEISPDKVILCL
Chain of human E3 ligase component cereblon (CRBN) (Q16531 whole entry partner): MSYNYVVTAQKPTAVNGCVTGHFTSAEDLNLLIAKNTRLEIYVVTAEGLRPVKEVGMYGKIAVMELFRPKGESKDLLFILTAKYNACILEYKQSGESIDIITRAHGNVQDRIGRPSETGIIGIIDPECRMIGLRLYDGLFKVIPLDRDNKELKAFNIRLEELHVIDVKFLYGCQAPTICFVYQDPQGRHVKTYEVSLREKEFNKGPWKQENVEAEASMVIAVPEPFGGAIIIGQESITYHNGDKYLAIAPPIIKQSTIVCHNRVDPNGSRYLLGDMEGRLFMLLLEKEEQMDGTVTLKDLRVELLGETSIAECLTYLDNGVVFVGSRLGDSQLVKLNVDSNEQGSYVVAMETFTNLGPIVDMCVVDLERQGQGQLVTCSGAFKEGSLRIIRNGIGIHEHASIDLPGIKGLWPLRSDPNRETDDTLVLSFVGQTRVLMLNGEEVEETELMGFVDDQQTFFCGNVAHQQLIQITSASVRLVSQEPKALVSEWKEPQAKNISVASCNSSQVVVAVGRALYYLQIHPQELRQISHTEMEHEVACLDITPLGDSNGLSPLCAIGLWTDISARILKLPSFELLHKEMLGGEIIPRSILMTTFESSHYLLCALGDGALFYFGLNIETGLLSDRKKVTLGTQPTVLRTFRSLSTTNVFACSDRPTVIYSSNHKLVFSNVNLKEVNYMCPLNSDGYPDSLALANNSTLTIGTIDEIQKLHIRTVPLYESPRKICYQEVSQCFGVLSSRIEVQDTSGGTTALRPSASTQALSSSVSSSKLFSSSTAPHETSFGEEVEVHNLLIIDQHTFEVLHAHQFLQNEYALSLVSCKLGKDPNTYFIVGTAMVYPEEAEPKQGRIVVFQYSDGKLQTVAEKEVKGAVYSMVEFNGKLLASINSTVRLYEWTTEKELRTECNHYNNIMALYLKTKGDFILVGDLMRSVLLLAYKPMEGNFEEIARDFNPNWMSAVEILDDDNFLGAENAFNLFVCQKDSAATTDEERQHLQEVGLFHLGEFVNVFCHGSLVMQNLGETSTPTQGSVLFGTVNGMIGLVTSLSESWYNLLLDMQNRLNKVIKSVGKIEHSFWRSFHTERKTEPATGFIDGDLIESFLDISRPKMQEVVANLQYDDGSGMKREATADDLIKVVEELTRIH
Chain of GSPT1 (P15170 whole entry): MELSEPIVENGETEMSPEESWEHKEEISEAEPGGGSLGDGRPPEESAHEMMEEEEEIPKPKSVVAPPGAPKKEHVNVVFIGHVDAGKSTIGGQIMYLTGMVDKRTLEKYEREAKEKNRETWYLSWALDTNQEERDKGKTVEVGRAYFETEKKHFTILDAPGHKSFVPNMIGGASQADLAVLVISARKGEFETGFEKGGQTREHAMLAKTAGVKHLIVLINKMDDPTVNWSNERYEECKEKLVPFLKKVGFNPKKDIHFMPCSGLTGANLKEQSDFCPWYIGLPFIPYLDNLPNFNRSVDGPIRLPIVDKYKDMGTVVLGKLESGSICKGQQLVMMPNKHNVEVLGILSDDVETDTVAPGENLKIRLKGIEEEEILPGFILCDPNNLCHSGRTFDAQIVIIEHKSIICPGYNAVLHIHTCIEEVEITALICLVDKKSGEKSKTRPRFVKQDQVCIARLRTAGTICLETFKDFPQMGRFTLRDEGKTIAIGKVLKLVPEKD
Chain of GSPT1 (Q96SW2 whole entry): as the sequence (Q96SW2 whole entry) above
Chain of GSPT1 (Q16531 whole entry partner): as the sequence (Q16531 whole entry partner) above

SMILES	EC50 [1, 2] [nM]	EC50 [1, 3] [nM]	DC50 (GSPT1) [nM]
O=C1CCC(N2Cc3cc(O[C@H]4CCCC[C@@H]4N4CC(C5CC5)C4)ccc3C2=O)C(=O)N1 (stereo partly drawn) [Compound 3, 3-(5-(((1S,2S)-2-(3-cyclopropylazetidin-1-yl)cyclohexyl)oxy)-1-oxoisoindolin-2-yl)piperidine-2,6-dione]	9	9	> 30000
O=C1CCC(N2Cc3cc(O[C@H]4CCCC[C@@H]4N4CC(C5CCC5)C4)ccc3C2=O)C(=O)N1 (stereo partly drawn) [Compound 5, 3-(5-(((1S,2S)-2-(3-cyclobutylazetidin-1-yl)cyclohexyl)oxy)-1-oxoisoindolin-2-yl)piperidine-2,6-dione]	9	9	> 30000
O=C1CCC(N2Cc3cc(O[C@H]4CCCC[C@@H]4N4CC(C5CCCC5)C4)ccc3C2=O)C(=O)N1 (stereo partly drawn) [Compound 6, 3-(5-(((1S,2S)-2-(3-cyclopentylazetidin-1-yl)cyclohexyl)oxy)-1-oxoisoindolin-2-yl)piperidine-2,6-dione]	5	5	> 30000
O=C1CCC(N2Cc3cc(O[C@H]4CCC[C@@H]4N4CC(C5CCC(F)(F)CC5)C4)ccc3C2=O)C(=O)N1 (stereo partly drawn) [Compound 13, 3-(5-(((1S,2S)-2-(3-(4,4-difluorocyclohexyl)azetidin-1-yl)cyclopentyl)oxy)-1-oxoisoindolin-2-yl)piperidine-2,6-dione]	5	5	> 30000
O=C1CCC(N2Cc3cc(O[C@H]4CCCC[C@@H]4N4CC(C5CC(F)(F)C5)C4)ccc3C2=O)C(=O)N1 (stereo partly drawn) [Compound 18, 3-(5-(((1S,2S)-2-(3-(3,3-difluorocyclobutyl)azetidin-1-yl)cyclohexyl)oxy)-1-oxoisoindolin-2-yl)piperidine-2,6-dione]	12	12	> 30000
O=C1CCC(N2Cc3cc(O[C@H]4CCC[C@@H]4N4CC(C5CC5)C4)ccc3C2=O)C(=O)N1 (stereo partly drawn) [Compound 22, 3-(5-(((1S,2S)-2-(3-cyclopropylazetidin-1-yl)cyclopentyl)oxy)-1-oxoisoindolin-2-yl)piperidine-2,6-dione]	22	22	> 30000
O=C1CCC(N2Cc3c(ccc(O[C@H]4CCCC[C@@H]4N4CC(C5CC5)C4)c3F)C2=O)C(=O)N1 (stereo partly drawn) [Compound 24, 3-(5-(((1S,2S)-2-(3-cyclopropylazetidin-1-yl)cyclohexyl)oxy)-4-fluoro-1-oxoisoindolin-2-yl)piperidine-2,6-dione]	49	49	> 30000
O=C1CCC(N2Cc3c(ccc(O[C@H]4CCCC[C@@H]4N4CC(C5CCC5)C4)c3F)C2=O)C(=O)N1 (stereo partly drawn) [Compound 25, 3-(5-(((1S,2S)-2-(3-cyclobutylazetidin-1-yl)cyclohexyl)oxy)-4-fluoro-1-oxoisoindolin-2-yl)piperidine-2,6-dione]	28	28	> 30000
O=C1CCC(N2Cc3cc(O[C@H]4CCCC[C@@H]4N4CC(C5CC5)C4)c(F)cc3C2=O)C(=O)N1 (stereo partly drawn) [Compound 26, 3-(5-(((1S,2S)-2-(3-cyclopropylazetidin-1-yl)cyclohexyl)oxy)-6-fluoro-1-oxoisoindolin-2-yl)piperidine-2,6-dione]	16	16	> 30000
O=C1CCC(N2Cc3cc(O[C@H]4CCCC[C@@H]4N4CC(C5CCC5)C4)c(F)cc3C2=O)C(=O)N1 (stereo partly drawn) [Compound 27, 3-(5-(((1S,2S)-2-(3-cyclobutylazetidin-1-yl)cyclohexyl)oxy)-6-fluoro-1-oxoisoindolin-2-yl)piperidine-2,6-dione]	18	18	> 30000

Molecules with a lower EC50 [1, 2], results first:

EC50 [1, 2] [nM]	EC50 [1, 3] [nM]	DC50 (GSPT1) [nM]	SMILES
4	4	> 30000	O=C1CCC(N2Cc3cc(O[C@H]4CCCC[C@@H]4N4CC(C5CCCC(F)(F)C5)C4)ccc3C2=O)C(=O)N1 (stereo partly drawn) [Compound 20, 3-(5-(((1S,2S)-2-(3-(3,3-difluorocyclohexyl)azetidin-1-yl)cyclohexyl)oxy)-1-oxoisoindolin-2-yl)piperidine-2,6-dione]
3	3	> 30000	O=C1CCC(N2Cc3cc(O[C@H]4CCCC[C@@H]4N4CC(C5CCCCC5)C4)ccc3C2=O)C(=O)N1 (stereo partly drawn) [Compound 1, 3-(5-(((1S,2S)-2-(3-cyclohexylazetidin-1-yl)cyclohexyl)oxy)-1-oxoisoindolin-2-yl)piperidine-2,6-dione]
2	2	> 30000	O=C1CCC(N2Cc3cc(O[C@H]4CCCC[C@@H]4N4CC(C5CCC(F)(F)CC5)C4)ccc3C2=O)C(=O)N1 (stereo partly drawn) [Compound 2, 3-(5-(((1S,2S)-2-(3-(4,4-difluorocyclohexyl)azetidin-1-yl)cyclohexyl)oxy)-1-oxoisoindolin-2-yl)piperidine-2,6-dione]
2	2	> 30000	CC(C)OC1CCC(C2CN([C@H]3CCCC[C@@H]3Oc3ccc4c(c3)CN(C3CCC(=O)NC3=O)C4=O)C2)CC1 (stereo partly drawn) [Compound 16, 3-(5-(((1S,2S)-2-(3-((cis)-4-isopropoxycyclohexyl)azetidin-1-yl)cyclohexyl)oxy)-1-oxoisoindolin-2-yl)piperidine-2,6-dione]
1	1	> 30000	CC(C)OC1CCC(C2CN([C@H]3CCCC[C@@H]3Oc3ccc4c(c3)CN(C3CCC(=O)NC3=O)C4=O)C2)CC1 (stereo partly drawn) [Compound 17, 3-(5-(((1S,2S)-2-(3-((trans)-4-isopropoxycyclohexyl)azetidin-1-yl)cyclohexyl)oxy)-1-oxoisoindolin-2-yl)piperidine-2,6-dione]
1	1	> 30000	CCOC1CCC(C2CN([C@H]3CCCC[C@@H]3Oc3ccc4c(c3)CN(C3CCC(=O)NC3=O)C4=O)C2)CC1 (stereo partly drawn) [Compound 19, 3-(5-(((1S,2S)-2-(3-(4-ethoxycyclohexyl)azetidin-1-yl)cyclohexyl)oxy)-1-oxoisoindolin-2-yl)piperidine-2,6-dione]
1	1	> 30000	O=C1CCC(N2Cc3cc(O[C@H]4CCCC[C@@H]4N4CC(C5CCC(OC(F)F)CC5)C4)ccc3C2=O)C(=O)N1 (stereo partly drawn) [Compound 21, 3-(5-(((1S,2S)-2-(3-(4-(difluoromethoxy)cyclohexyl)azetidin-1-yl)cyclohexyl)oxy)-1-oxoisoindolin-2-yl)piperidine-2,6-dione]

From patent publication US20240287037A1, “CYCLOALKYL COMPOUNDS AND PHARMACEUTICAL COMPOSITIONS THAT MODULATE IKZF2” (Plexium, Inc., priority 2021, published 2024)
